Reference: US20250230193A1, “CYCLIC COMPOUND HAVING SELECTIVE KRAS INHIBITORY EFFECT ON HRAS AND NRAS” (CHUGAI SEIYAKU KABUSHIKI KAISHA, priority 2022, published 2025)

Assays:
[1] = biological target: GDP-bound HRAS wild-type protein (Homo sapiens, UniProt P01112); assay: Binding to HRAS by surface plasmon resonance (SPR), Single Cycle Kinetics
[2] = biological target: GDP-bound NRAS wild-type protein (Homo sapiens, UniProt P01111); assay: Binding to NRAS by surface plasmon resonance (SPR), Single Cycle Kinetics
GDP-bound NRAS wild-type protein, sequence (P01111 whole entry): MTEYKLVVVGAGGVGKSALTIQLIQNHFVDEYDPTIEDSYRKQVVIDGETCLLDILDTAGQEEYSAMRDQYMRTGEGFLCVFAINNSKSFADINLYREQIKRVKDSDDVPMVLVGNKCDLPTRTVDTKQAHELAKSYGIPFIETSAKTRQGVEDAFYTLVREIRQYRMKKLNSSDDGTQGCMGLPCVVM

[3] = SPR, GDP-bound HRAS wild-type vs GDP-bound KRAS wild-type
[4] = SPR, GDP-bound NRAS wild-type vs GDP-bound KRAS wild-type
[5] = SPR, GDP-bound wild-type proteins

GDP-bound HRAS wild-type protein, sequence (P01112 whole entry): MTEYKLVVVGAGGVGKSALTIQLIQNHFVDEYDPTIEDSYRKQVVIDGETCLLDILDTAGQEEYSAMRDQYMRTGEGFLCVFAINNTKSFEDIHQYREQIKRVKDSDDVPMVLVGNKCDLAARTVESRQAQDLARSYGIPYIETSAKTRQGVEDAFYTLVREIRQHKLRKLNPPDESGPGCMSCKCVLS

## CCO[C@@H]1C[C@H]2C(=O)NC3(CC(C)(C)C3)C(=O)N(C)[C@@H](C(CC)CC)C(=O)N(C)[C@H](C(=O)N3CCCC3)CC(=O)N(C)[C@@H](COC)C(=O)N[C@@H]([C@@H](C)CC)C(=O)N(C)CC(=O)N(C)[C@H]3C/C=C\CCN(C3=O)[C@@H](Cc3ccc(C(F)(F)F)cc3)C(=O)N(C)CC(=O)N[C@@H](CCc3ccc(C(F)(F)F)c(OC)c3)C(=O)N2C1 [PP2159]
[1]; [3]
  HRAS/KRAS (ratio of KD value with respect to HRAS to KD value with respect to KRAS): A (a compound having 10 or more and less than 20 is denoted as A)
[2]; [4]
  NRAS/KRAS (ratio of KD value with respect to NRAS to KD value with respect to KRAS): AA (a compound having 20 or more is denoted as AA)

## CCCO[C@@H]1C[C@H]2C(=O)NC3(CC(C)(C)C3)C(=O)N(C)[C@@H](C(CC)CC)C(=O)N(C)[C@H](C(=O)N(C)C)CC(=O)N(C)[C@H]3CCCc4ccc(cc4)C[C@@H](C(=O)N(C)CC(=O)N[C@@H](CCc4ccc(C(F)(F)F)c(OC)c4)C(=O)N2C1)N1CC/C=C\C[C@@H](C1=O)N(C)C(=O)CN(C)C(=O)[C@H]([C@@H](C)CC)NC3=O [PP3063]
[1]; [5]
  HRAS/KRAS (ratio of KD value with respect to GDP-bound HRAS wild-type protein to KD value with respect to KRAS): B (a compound having 3 or more and less than 10 is denoted as B)
[2]; [5]
  NRAS/KRAS (ratio of KD value with respect to GDP-bound NRAS wild-type protein to KD value with respect to KRAS): B (a compound having 3 or more and less than 10 is denoted as B)

## CCO[C@@H]1C[C@H]2C(=O)NC3(CCC3)C(=O)N(C)[C@@H](C3CCCC3)C(=O)N(C)[C@H](C(=O)N3CCOCC3)CC(=O)N(C)[C@@H](COC)C(=O)N[C@@H]([C@@H](C)CC)C(=O)N(C)CC(=O)N(C)[C@H]3CCCCCN(C3=O)[C@@H](Cc3ccc(C(F)(F)F)cc3)C(=O)N(C)CC(=O)N[C@@H](CCc3cc(F)c(C(F)(F)F)c(F)c3)C(=O)N2C1 [PP0689]
[1]; SPR
  HRAS/KRAS (ratio of KD value with respect to GDP-bound HRAS wild-type protein to KD value with respect to KRAS): B (a compound having 3 or more and less than 10 is denoted as B)
[2]; SPR
  NRAS/KRAS (ratio of KD value with respect to GDP-bound NRAS wild-type protein to KD value with respect to KRAS): B (a compound having 3 or more and less than 10 is denoted as B)

## CC[C@H](C)[C@@H]1NC(=O)[C@H](COC)N(C)C(=O)C[C@@H](C(=O)N(C)C)N(C)C(=O)[C@H](C2CCCC2)N(C)C(=O)C2(CC(C)(C)C2)NC(=O)[C@@H]2C[C@H](C)CN2C(=O)[C@H](CCc2ccc(C(F)(F)F)c(OC)c2)NC(=O)CN(C)C(=O)[C@H](Cc2ccc(C)cc2)N2CC/C=C\C[C@@H](C2=O)N(C)C(=O)[C@@H]2C[C@H](OC)CN2C1=O [PP2390]
[1]; [3]
  HRAS/KRAS (ratio of KD value with respect to HRAS to KD value with respect to KRAS): B (a compound having 3 or more and less than 10 is denoted as B)
[2]; [4]
  NRAS/KRAS (ratio of KD value with respect to NRAS to KD value with respect to KRAS): A (a compound having 10 or more and less than 20 is denoted as A)

## CCOC[C@H]1C(=O)N[C@@H]([C@@H](C)CC)C(=O)N(C)CC(=O)N(C)[C@H]2C/C=C\CCN(C2=O)[C@@H](Cc2ccc(C(F)(F)F)cc2)C(=O)N(C)CC(=O)N[C@@H](CCc2cc(F)c(C(F)(F)F)c(F)c2)C(=O)N2C[C@@H](C)C[C@H]2C(=O)NC2(CC(C)(C)C2)C(=O)N(C)[C@@H](C2CCCC2)C(=O)N(C)[C@H](C(=O)N(C)CC)CC(=O)N1C [PP2042]
[1]; [3]
  HRAS/KRAS (ratio of KD value with respect to HRAS to KD value with respect to KRAS): A (a compound having 10 or more and less than 20 is denoted as A)
[2]; [4]
  NRAS/KRAS (ratio of KD value with respect to NRAS to KD value with respect to KRAS): A (a compound having 10 or more and less than 20 is denoted as A)

## CCO[C@@H]1C[C@H]2C(=O)NC3(CCC3)C(=O)N(C)[C@@H](C3CCCC3)C(=O)N(C)[C@H](C(=O)N(CC)CC)CC(=O)N(C)[C@@H](CC(C)C)C(=O)N[C@@H]([C@@H](C)CC)C(=O)N(C)CC(=O)N(C)[C@H]3C/C=C\CCN(C3=O)[C@@H](Cc3ccc(C)cc3)C(=O)N(C)CC(=O)N[C@@H](CCc3ccc(C(F)(F)F)c(OC)c3)C(=O)N2C1 [PP1851]
[1]; KD ratio, GDP-bound HRAS wild-type vs GDP-bound KRAS wild-type, SPR
  HRAS/KRAS (ratio of KD value for HRAS to KD value for KRAS): A (a compound having 10 or more and less than 20 is denoted as A)
[2]; KD ratio, GDP-bound NRAS wild-type vs GDP-bound KRAS wild-type, SPR
  NRAS/KRAS (ratio of KD value for NRAS to KD value for KRAS): A (a compound having 10 or more and less than 20 is denoted as A)

## CCC[C@H]1C(=O)N[C@@H]([C@@H](C)CC)C(=O)N(C)CC(=O)N(C)[C@H]2C/C=C\CCN(C2=O)[C@@H](Cc2ccc(C)cc2)C(=O)N(C)CC(=O)N[C@@H](CCc2ccc3c(C)cn(C)c3c2)C(=O)N2C[C@H](OCC)C[C@H]2C(=O)NC2(CC(C)(C)C2)C(=O)N(C)[C@@H](C2CCCC2)C(=O)N(C)[C@H](C(=O)N(C)C)CC(=O)N1C [PP2899]
[1]; class symbols
  HRAS/KRAS (ratio of KD value with respect to GDP-bound HRAS wild-type protein to KD value with respect to KRAS): B (a compound having 3 or more and less than 10 is denoted as B)
[2]; class symbols
  NRAS/KRAS (ratio of KD value with respect to GDP-bound NRAS wild-type protein to KD value with respect to KRAS): A (a compound having 10 or more and less than 20 is denoted as A)

## CCO[C@@H]1C[C@H]2C(=O)NC3(CCC3)C(=O)N(C)[C@@H](C3CCCC3)C(=O)N(C)[C@H](C(=O)N3CCOCC3)CC(=O)N(C)[C@@H](CC(C)C)C(=O)N[C@@H]([C@@H](C)CC)C(=O)N(C)CC(=O)N(C)[C@H]3CCCCCN(C3=O)[C@@H](Cc3ccc(C(F)(F)F)cc3)C(=O)N(C)CC(=O)N[C@@H](CCc3cc(F)c(C(F)(F)F)c(F)c3)C(=O)N2C1 [PP0467]
[1]; SPR
  HRAS/KRAS (ratio of KD value with respect to GDP-bound HRAS wild-type protein to KD value with respect to KRAS): B (a compound having 3 or more and less than 10 is denoted as B)
[2]; SPR
  NRAS/KRAS (ratio of KD value with respect to GDP-bound NRAS wild-type protein to KD value with respect to KRAS): B (a compound having 3 or more and less than 10 is denoted as B)
